This note sets out measurements from patent publication US20070092474A1, “Carnitine salt, preliposome which contains it and dermocosmetic formula for topical use based upon said carnitine salt” (priority 2003, published 2007).

The test relates to skin blemishes caused by cellulite and localised adiposity. As to the kind of experiment: Plicometry: skin plica thickness measured with a plicometer, dermatological test of the cosmetic gel. As to conditions: same tests repeated with the single reactant; site and time point of each value not given. The test is classed as in vivo, female volunteers. The method, then: A dermatological test was carried out on 25 female volunteers between 18 and 65 years of age, with the backing of the Department of Physiological and Pharmacological Sciences of the university of Pavia. The investigation aimed to check the modification of three anatomical-physiological parameters, qualifying the unaesthetic-functional aspect connected to the manifestation of so-called cellulite and subcutaneous hypertriglyceridaemia: measurement of the skin folds, measurement of the circumference of the thighs, thermographic skin measurement.
The test stretched out over 60 days with the continual daily application of the aforementioned preparation of cosmetic gel. The measurements were carried out after 15, 30 and 60 days. The detail of the test protocol and of the results obtained is shown hereafter.
25 female volunteers aged between 18 and 65, with the presence of skin blemishes caused by cellulite and localised adiposity, were selected according to the following criteria: good general state of health, absence of skin pathologies, not being under medication, commitment not to vary the normal daily routine, no medical history of atopy.
The samples were tested by uniformly applying them on “Glute SX Glute DJ (Femoris Posto SX Femoris Posto DX Femoris Ant. SX Femoris Ant. DX” every day at least once per day for the entire duration of the test.
At the time of inclusion in the study and during the subsequent checks after 15 days (T15), after 30 days (T30) and after 60 days (T60) of treatment the following instrumental measurements were taken: • plicometry (through a plicometer) • thigh circumference (through a measuring tape broken into millimetres) • contact thermography (through liquid crystal thermographic plates).
In particular, the plicometer used in the test constitutes the suitable instrument for measuring the skin plica thickness. Skin plicometry provides numerical data of particular use when the panniculopathic process of the cellulite is associated with localised adiposity.

Values joined by “and” are separate entries in the source; they are usually repeats but may differ in a detail not shown here. Identical values can stand only once.

For the compound `C[N+](C)(C)CC(O)CC(=O)O` (stereo not shown) [Carnitine (II), 3-carboxy-2-hydroxy-propyl trimethyl amine, reference compound], the “PLICOMETRY SX, average values” was 25.7 and 23.7.
